According to the Kinase Knowledgebase extract (Sharma et al. 2016):
pIC50: −log10 of the molar value.

Biological target: MAPK14 (human) (UniProt Q16539)
Assay: Inhibition of MAPK14 Kinase Activity
Settings: THP.1 monocytic

Chain of MAPK14 (human) (Q16539 whole entry, looked up): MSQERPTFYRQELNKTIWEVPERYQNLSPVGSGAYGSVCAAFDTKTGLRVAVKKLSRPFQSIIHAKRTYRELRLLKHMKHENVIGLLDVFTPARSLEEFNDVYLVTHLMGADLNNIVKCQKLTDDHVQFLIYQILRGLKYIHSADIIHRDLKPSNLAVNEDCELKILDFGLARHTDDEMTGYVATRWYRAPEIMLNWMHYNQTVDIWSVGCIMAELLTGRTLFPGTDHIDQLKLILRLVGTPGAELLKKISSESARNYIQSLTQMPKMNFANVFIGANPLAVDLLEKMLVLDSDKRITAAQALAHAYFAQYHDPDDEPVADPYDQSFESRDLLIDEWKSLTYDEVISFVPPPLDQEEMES

| SMILES | pIC50 |
| --- | --- |
| Cc1cc(OCc2ccc(F)cc2F)c(Br)c(=O)n1-c1cccc(CN)c1 | 4.60 to 6.00 |
| Cc1ccc(C(N)=O)cc1-n1c(C)cc(OCc2ccc(F)cc2F)c(Cl)c1=O | > 6.00 |
| Cc1cc(OCc2ccc(F)cc2F)c(Br)c(=O)n1-c1ccc2cn[nH]c2c1 | > 6.00 |
| Cc1cc(OCc2ccc(F)cc2F)c(Br)c(=O)n1Cc1ccc(C(=O)N(C)C)cc1 | > 6.00 |
| Cc1cc(OCc2ccc(F)cc2F)c(Br)c(=O)n1CCN1CCOCC1 | 4.00 to 4.60 |
| O=c1c(Br)c(NCc2cccc(C(F)(F)F)c2)ccn1Cc1cccc(F)c1 | 4.60 to 6.00 |
| O=c1c(Br)c(NCc2cccc(F)c2)ccn1Cc1cccc(F)c1 | 4.60 to 6.00 |
| O=c1c(Cl)c(OCc2ccc(F)cc2F)cc(CO)n1-c1c(F)cc(F)cc1F | > 6.00 |
| Cc1cc(OCc2ccc(F)cc2F)c(Br)c(=O)n1-c1cccc(C(=O)NCCCN)c1 | > 6.00 |
